# Assay results from PMC12392461, “Beyond Estrogenicity: A Comparative Assessment of Bisphenol A and Its Alternatives in In Vitro Assays Questions Safety of Replacements” (Environmental Science & Technology, 2025).
# Where two headings read alike, the source gives them in different places.
# Experiments:
# [1] = tested on: Antioxidant response element; assay: MitoOxTox: oxidative stress response in AREc32; conditions: for EC10, linear: linear model fit
# From the text: All bioassay media components and the ERα-UAS-bla GripTite and PPARγ-UAS-bla cells were obtained from Thermo Fisher Scientific (Waltham, MA, USA). AREc32 reporter gene cells based on MCF7 were provided by C. Roland Wolf (Cancer Research UK); AhR CALUX cells (H4L7.5c2 derived from H4IIe) were provided by Michael Denison (UC Davis, USA); and SH-SY5Y cells were purchased from Sigma-Aldrich.
# (§1) Cell culture conditions and bioassay protocols including response detection are provided in Text S2.1–2.4 and Table S3. − Cell viability was determined from cell confluency using an IncuCyte S3 Live-Cell Analysis System (Sartorius AG, Essen, Germany) before and after exposure, except for SH-SY5Y cells (live–dead staining with Nuclear Green LcS1 and propidium iodide, Abcam, UK). For metabolic activation experiments, cell viability was assessed using the ToxBLAzer DualScreen Kit (Thermo Fisher Scientific) to capture the remaining toxicity in ERα-UAS-bla GripTite after treatment with the aCYP catalyst (details in Text S2.4).
# For ARE, the concentration that triggered an induction ratio of 1.5 (ECIR1.5) was used as the benchmark value, as detailed in Text S2.5. IC10 values also served as a threshold for data analysis in all assays; only concentrations below IC10 were considered when deriving EC10 or ECIR1.5. […]
# S2: Cell culture and bioassays
# S2.1: Cell Culturing Conditions
# All suppliers and sources are given in detail in SI-Excel S3. The bioassay media for the different assays were prepared as follows: Assay medium for ER alpha-UAS-bla GripTite (ERα) and PPAR gamma-UAS-bla 293H (PPARγ) was prepared with 98% Opti-MEM, supplemented with 2% charcoal-stripped FBS, and 100 U/mL penicillin-streptomycin. MitoOxTox and AhR assay medium was comprised of 90% DMEM with GlutaMAX, supplemented with 10% FBS, and 100 U/mL penicillin-streptomycin. Neurotoxicity assay medium consisted of the neurobasal […]
# (1 picture or pasted object on this page, not shown here) […]
# medium, supplemented with 2% B-27 Supplement and 2 mM GlutaMAX Supplement. SH - SY5Y cells were differentiated with 10 µM all-trans retinoic acid prior to the assay.
# S2.2: Cell Seeding and Incubation. For all bioassays, cell suspensions in the respective assay medium were dispensed into each well of 384-well plates using a MultiFlo Dispenser (Biotek, (now Agilent), Winooski, VT, U.S.). After seeding, the plates were incubated at 37° C and 5% CO₂ for […]. The final cell densities and plate types were as follows: Black poly-D-lysine coated 384-well plates (Product No. 354663, Corning Inc., NYC, U.S.) were used for PPARγ:
# 6500 cells/well, ERα: 5000 cells/well. White 384-well plates with a clear bottom (Product No.
# 781098, Greiner, Kremsmünster, Austria) were utilized for the MitoOxTox assay: 2650
# [2] = Abiotic CYP (aCYP) oxidation, remaining parent compound (Cparent-Ratio); conditions: for Cparent-Ratio Rep.1 %: Table S9, replicate 1; for Cparent-Ratio Rep.2 %: Table S9, replicate 2
# [3] = biological target: T1, Estrogen Receptor ERα (Homo sapiens, UniProt P03372); assay: aCYP oxidation followed by ERα-UAS-bla GripTite assay (TK-Ratio of effect); assay type: cell-based; conditions: for EC10, before oxidation / EC10, after oxidation: ERα, in M; for EC10, after oxidation: after abiotic CYP catalyst; for TKERα: TKERα-Ratio
# T1 sequence (P03372 311-547 limits assumed): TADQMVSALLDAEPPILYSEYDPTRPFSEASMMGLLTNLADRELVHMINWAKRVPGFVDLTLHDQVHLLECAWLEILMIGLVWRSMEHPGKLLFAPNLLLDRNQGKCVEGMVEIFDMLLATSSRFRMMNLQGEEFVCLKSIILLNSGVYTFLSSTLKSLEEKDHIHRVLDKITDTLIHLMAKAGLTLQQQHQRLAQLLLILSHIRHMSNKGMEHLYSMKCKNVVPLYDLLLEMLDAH
# Procedure: as §1, with “S2.4). […]” for “S2.4).”
# The TK-Ratio method was used to evaluate the impact of abiotic CYP oxidation on the potency of tested compounds. […]
# For experiments with the preceding aCYP activation, ERα cell viability was additionally calculated from the readout of the ToxBLAzer reagent. The ToxBLAzer assay was conducted following the manufacturer's instructions (Thermo Fisher, Waltham, MA, U.S.).13 Fluorescence intensity was recorded at the start of the assay ( Fwavelength(0h)) and after a 2-hour incubation at […]
# Cell viability was assessed based on the red fluorescence signal at 665 nm, applying eq. S11 for normalization.
# Cell viability = F665nm(2h, sample)-F665nm(0h, average cell-free) (S11) F665nm(2h, average unexposed)-F665nm(0h, average cell-free) […]
# the specific endpoint to avoid artifacts from cytotoxicity burst. 15
# S2.5: Concentration-response curves (CRCs)
# To avoid bias from cytotoxicity burst at higher concentrations, all concentrations exceeding the IC10 for cytotoxicity were excluded in the CRC modeling of effects but otherwise cytotoxicity and effects were fitted with the same model equations (response stands for cytotoxicity or effect). For ERα, AhR, ARE and PPARγ preferably a linear model was fitted to the linear portion of CRC up to maximum 30% effect (eq. S12),16 but in some cases it was necessary to choose a sigmoidal log-concentration-response model, specifically a log-logistic model (eq. S13), to derive effect concentrations and cytotoxicity. For mitochondrial toxicity and neurotoxicity, the […]
# are not reporter gene assays. Common practice when using log-logistic models, e.g., the model implemented in tcpl package in R,17, 18 is that the minima and maxima are also fitted and only median effect concentrations AC50 are derived. […]
# concentrations (EC10) for both linear and log-sigmoidal CRCs to allow absolute comparisons at the same effect level and for TR and SR -analysis. This was done using the AutomatedBioassayScreening19 published by Braun et al.,20 which also included an algorithm to choose the best model between eq. S12 and eq. S13.
# Response (%) = slope × C (S12) […]
# logEC =logEC − 1 ∙log (max−min − 100%) (S14)
# [4] = Bioassay ARE, dosing range all, log-logistic model fit
# [5] = Table S9, loss of parent after aCYP oxidation
# [6] = Table S9, mean of two replicate experiments
# [7] = Table S9, replicate 1, as fraction
# [8] = Table S9, replicate 2, as fraction
# [9] = Table S11, measured simultaneously with bioassay
# [10] = Arec32, read-out: EC10, linear transformed
smiles,measurement,setting,value
CC1(C)[C@H](O)C(C)(C)[C@H]1O [Trans TMCD],"EC10, linear","[1]; Bioassay ARE, dosing range all",no effect
same,logEC10,[1]; [4],no effect
"Oc1ccc(C(c2ccc(O)cc2)(C(F)(F)F)C(F)(F)F)cc1 [BPAF, 4,4'-(1,1,1,3,3,3-Hexafluoropropane-2,2-diyl)diphenol]","EC10, linear","[1]; Bioassay ARE, dosing range all",no effect
same,logEC10,[1]; [4],no effect
"CC(C)(c1cc(Br)c(O)c(Br)c1)c1cc(Br)c(O)c(Br)c1 [TBBPA, 3,3',5,5'-Tetrabromobisphenol A]",logEC10,[1],no effect
same,"EC10, linear","[1]; Bioassay ARE, dosing range all",no effect
same,% Loss,[2]; [5],8%
"CC(c1ccccc1)(c1ccc(O)cc1)c1ccc(O)cc1 [BPAP, 4,4'-(1-Phenylethylidene)bisphenol]","EC10, linear","[1]; Bioassay ARE, dosing range all",no effect
same,logEC10,[1]; [4],no effect
"Cc1cc(Cc2cc(C)c(O)c(C)c2)cc(C)c1O [TMBPF, Bis(3,5-dimethyl-4-hydroxyphenyl)methane]","EC10, linear","[1]; Bioassay ARE, dosing range all",no effect
same,logEC10,[1]; [4],no effect
same,% Loss,[2]; [5],31%
same,Cparent-Ratio Mean,[2]; [6],0.69
same,Cparent-Ratio Rep.1 %,[2],58.94%
same,Cparent-Ratio Rep.1,[2]; [7],0.59
same,Cparent-Ratio Rep.2 %,[2],79.26%
same,Cparent-Ratio Rep.2,[2]; [8],0.79
same,% Loss,[2]; Table S11,56%
same,Cparent-Ratio Mean,[2]; [9],0.44
same,Cparent-Ratio Rep.1,[2]; [9],0.29
same,Cparent-Ratio Rep.2,[2]; [9],0.59
"O=S(=O)(c1ccc(O)cc1)c1ccccc1O [2,4-BPS, 2,4'-Dihydroxydiphenyl sulfone]",EC10,[1]; [10],88.7 mM
same,"EC10, linear","[1]; Bioassay ARE, dosing range all",no effect
same,logEC10,[1]; [4],no effect
same,"EC10, before oxidation",[3]; Table S10,3.59E-05
"Cc1ccc(S(=O)(=O)NC(=O)Nc2cccc(OS(=O)(=O)c3ccc(C)cc3)c2)cc1 [Pergafast, N-(p-toluenesulfonyl)-N'-(3-(p-toluenesulfonyloxy)phenyl)urea]","EC10, linear","[1]; Bioassay ARE, dosing range all",no effect
same,logEC10,[1]; [4],no effect
same,reduction of C parent after aCYP oxidation,"[2]; 15 min, 30 °C",44%
same,% Loss,[2]; [5],44%
same,Cparent-Ratio Mean,[2]; [6],0.56
same,Cparent-Ratio Rep.1 %,[2],66.98%
same,Cparent-Ratio Rep.1,[2]; [7],0.67
same,Cparent-Ratio Rep.2 %,[2],45.82%
same,Cparent-Ratio Rep.2,[2]; [8],0.46
same,% Loss,[2]; Table S11,32%
same,Cparent-Ratio Mean,[2]; [9],0.68
same,Cparent-Ratio Rep.1,[2]; [9],0.75
same,Cparent-Ratio Rep.2,[2]; [9],0.61
"CC(C)CC(C)(c1ccc(O)cc1)c1ccc(O)cc1 [BP-MIBK, 4,4'-(1,3-Dimethylbutylidene)diphenol]","EC10, linear","[1]; Bioassay ARE, dosing range all",no effect
same,logEC10,[1]; [4],no effect
"CC(C)(c1ccc(OCC2CO2)cc1)c1ccc(OCC2CO2)cc1 (stereo not drawn) [BADGE, Bisphenol A diglycidyl ether]",oxidative stress response (ARE activation),[1],lacked any oxidative stress response
same,"EC10, linear","[1]; Bioassay ARE, dosing range all",no effect
same,logEC10,[1]; [4],no effect
"CC1(C)[C@H](O)C(C)(C)[C@H]1O [t-TMCD, trans-2,2,4,4-Tetramethyl-1,3-cyclobutanediol]","EC10, before oxidation",[3]; Table S10,3.18E-03
same,% Loss,[2]; [5],0.48%
same,Cparent-Ratio Mean,[2]; [6],1.00
same,Cparent-Ratio Rep.1 %,[2],90.48%
same,Cparent-Ratio Rep.1,[2]; [7],0.90
same,Cparent-Ratio Rep.2 %,[2],108.56%
same,Cparent-Ratio Rep.2,[2]; [8],1.09
"CCC(C)(c1ccc(O)cc1)c1ccc(O)cc1 [BPB, 4,4'-(Butane-2,2-diyl)diphenol]","EC10, linear","[1]; Bioassay ARE, dosing range all",no effect
same,logEC10,[1]; [4],no effect
same,"EC10, after oxidation",[3]; Table S10,3.59E-07
same,"EC10, before oxidation",[3]; Table S10,1.07E-07
same,TKERα,[3]; Table S10,0.2982
"CC(c1ccc(O)cc1)c1ccc(O)cc1 [BPE, 4,4′-Ethylidenbisphenol]",EC10,[1]; [10],3.72 mM
same,"EC10, linear","[1]; Bioassay ARE, dosing range all",no effect
same,logEC10,[1]; [4],masked by cytotoxicity
"Oc1ccc(C2(c3ccc(O)cc3)CCCCC2)cc1 [BPZ, 1,1'-Bis(4-hydroxyphenyl)cyclohexane]",% Loss,[2]; [5],12%
"O=S(=O)(c1ccc(O)cc1)c1ccc(OCc2ccccc2)cc1 [BPS-MPE, 4-[4-(benzyloxy)benzenesulfonyl]phenol]",EC10,"[1]; Arec32, read-out: EC10, linear",0.0557 mM
same,EC10,[1]; [10],0.133 mM
same,logEC10,[1]; [4],no effect
same,% Loss,[2]; [5],0.295%
same,Cparent-Ratio Mean,[2]; [6],1.00
same,Cparent-Ratio Rep.1 %,[2],118.51%
same,Cparent-Ratio Rep.1,[2]; [7],1.19
same,Cparent-Ratio Rep.2 %,[2],80.90%
same,Cparent-Ratio Rep.2,[2]; [8],0.81
"CC(C)(c1cc(Cl)c(O)c(Cl)c1)c1cc(Cl)c(O)c(Cl)c1 [TCBPA, 2,2',6,6'-Tetrachlorobisphenol A]","EC10, linear","[1]; Bioassay ARE, dosing range all",no effect
same,logEC10,[1]; [4],no effect
"CC(C)(c1ccc(O)c(-c2ccccc2)c1)c1ccc(O)c(-c2ccccc2)c1 [BPPH, 2,2-Bis(2-hydroxy-5-biphenylyl)propane]","EC10, linear","[1]; Bioassay ARE, dosing range all",no effect
same,logEC10,[1]; [4],no effect
same,% Loss,[2]; [5],22%
same,Cparent-Ratio Mean,[2]; [6],0.78
same,Cparent-Ratio Rep.1 %,[2],89.82%
same,Cparent-Ratio Rep.1,[2]; [7],0.90
same,Cparent-Ratio Rep.2 %,[2],66.60%
same,Cparent-Ratio Rep.2,[2]; [8],0.67
same,% Loss,[2]; Table S11,22%
same,Cparent-Ratio Mean,[2]; [9],0.78
same,Cparent-Ratio Rep.1,[2]; [9],0.78
same,Cparent-Ratio Rep.2,[2]; [9],0.78
"O=S(=O)(c1ccc(O)cc1)c1ccc(O)cc1 [BPS, 4,4'-Sulfonyldiphenol]","EC10, linear","[1]; Bioassay ARE, dosing range all",no effect
same,logEC10,[1]; [4],no effect
same,"EC10, after oxidation",[3]; Table S10,1.48E-06
same,"EC10, before oxidation",[3]; Table S10,1.65E-06
same,TKERα,[3]; Table S10,1.115
"Oc1ccc(Cc2ccc(O)cc2)cc1 [BPF, Bis(4-hydroxyphenyl)methane]",EC10,[1]; [10],1.47 mM
same,"EC10, linear","[1]; Bioassay ARE, dosing range all",no effect
same,logEC10,[1]; [4],masked by cytotoxicity
same,"EC10, after oxidation",[3]; Table S10,1.00E-06
same,"EC10, before oxidation",[3]; Table S10,9.67E-07
same,TKERα,[3]; Table S10,0.964
same,"EC10, after oxidation",[3]; Table S11,1.36E-06
same,"EC10, before oxidation",[3]; Table S11,1.26E-06
same,TKERα,[3]; Table S11,0.93
